The assay deals with PRG4 mRNA. The note with it: primary human corneal epithelial cells; for increase in PRG4 mRNA levels relative to the control levels at Day 0: 10 nM DHT. The procedure:
Cells were grown in keratinocyte serum free media until reaching about 80% confluence. Cells (n=3 wells/treatment/experiment) were then incubated with either vehicle or 10 nM dihydrotestosterone (DHT) for up to 5 days. At designated times cells were processed for total RNA isolation and analysis of PRG4 mRNA mRNA by RT-PCR.
Methods. Cells were grown in keratinocyte serum free media until reaching about 80% confluence. Cells (n=3 wells/treatment/experiment) were then incubated with either vehicle or 10 nM dihydrotestosterone (DHT) for up to 5 days. At designated times cells were processed for total RNA isolation and analysis of PRG4 mRNA mRNA by RT-PCR. Results.

Like-named read-outs stand apart in the source and are kept apart here.

`C[C@]12CCC(=O)C[C@@H]1CC[C@@H]1[C@@H]2CC[C@]2(C)[C@@H](O)CC[C@@H]12` [DHT, dihydrotestosterone]: the “increase in PRG4 mRNA levels relative to the control levels at Day 0” value worked out at 10.3 fold (3 days of hormone exposure), 3.6 fold (4 days of hormone exposure) and 2.8 fold (5 days of hormone exposure). In addition, the “increase in PRG4 mRNA content relative to that of vehicle-treated controls” value (another experiment, treatment of cells for 5 days with DHT) is on record as 46 fold.

The values are drawn from patent US9138457B2, “Therapeutic modulation of ocular surface lubrication” (THE REGENTS OF THE UNIVERSITY OF CALIFORNIA, priority 2008, dated 2015).
